In the SangsterLogP compilation one finds logP data, which are given here for twelve compounds.

Structures are written as SMILES.

In general, logP refers to a log measure of how a compound divides between an organic and an aqueous phase. Low readings indicate lower lipophilicity, high ones higher lipophilicity.

Compound `CCOC(=O)CCCCCCCCCCCN(C)C(=O)CO[C@@H](C)[C@H](C)OCC(=O)N(C)CCCCCCCCCCCC(=O)OCC` had a logP of 6.2. With `CCN(Cc1ccccc1)C(=O)COCC(=O)N(CC)Cc1ccccc1` the figure was 2.5. In the case of `O=C1COCC(=O)N(Cc2ccccc2)CCOCCN(Cc2ccccc2)C(=O)COCC(=O)N(Cc2ccccc2)CCOCCN1Cc1ccccc1`, the logP was 3.8. With `O=C1COCCOCC(=O)N(Cc2ccccc2)CCN(Cc2ccccc2)C(=O)COCCOCC(=O)N(Cc2ccccc2)CCN1Cc1ccccc1`, the logP stood at 3.8.

The compound `O=C(COCC(=O)N(C1CCCCC1)C1CCCCC1)N(C1CCCCC1)C1CCCCC1` yielded a logP of 6.7. The result for `O=C1CCCCCCC(=O)N(Cc2ccccc2)CCN(Cc2ccccc2)C(=O)CCCCCCC(=O)N(Cc2ccccc2)CCN1Cc1ccccc1` reads 5.1. For `O=C1COCC(=O)N(Cc2ccccc2)CCN(Cc2ccccc2)C(=O)COCC(=O)NCCN1`, the logP came out at 1.9. Compound `O=C1COCC(=O)N(Cc2ccccc2)CCN(c2ccccc2)CCN(Cc2ccccc2)C(=O)COCC(=O)N(Cc2ccccc2)CCN1Cc1ccccc1` registered a logP of 5.2. `O=C1COCC(=O)N(Cc2ccccc2)CCN(Cc2ccccc2)C(=O)COCC(=O)N(Cc2ccccc2)CCOCCN1Cc1ccccc1` gave a logP of 3.8. For `O=C1COCC(=O)N(Cc2ccccc2)CCN(c2ccccc2)CCN(Cc2ccccc2)C(=O)COCC(=O)NCCN1`, the logP came out at 2.2. Compound `O=C1COCC(=O)N(Cc2ccccc2)CCN(Cc2ccccc2)C(=O)COCC(=O)N(Cc2ccccc2)CCN1Cc1ccccc1` gave a logP of 3.8. With `O=C1COCC(=O)N(Cc2ccccc2)CCN(c2ccc(F)cc2)CCN(Cc2ccccc2)C(=O)COCC(=O)N(Cc2ccccc2)CCN1Cc1ccccc1` the figure was 5.2.
